Reference: patent US20070208087A1, “Compounds, compositions and methods for the treatment of inflammatory diseases” (priority 2001, published 2007)
Where “and” joins values, the source holds several entries; their conditions need not be identical. Equal values may be shown once. Read-outs that look alike come from different tables or passages of the source.

Legend:
Assay type in all cases: cell-based
microglia = test: Ranking of NO release inhibition (Example 12); conditions: Microglia, ranking table
Text: The bis- and tris-dihydroxyaryl compounds were ranked in order of effectiveness for the inhibition of NO release as set out in Table 8.

[1] = test system: EOC 13.31 microglia cells; test: Inhibition of NO release from microglia following 24 hours pretreatment (Example 10); conditions: for inhibition at 50 µM: Microglia
Outline: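 Confluent EOC 13.31 cells pretreated 24 hours with 50 μM compound (from 10 mM DMSO stock), then stimulated with 10 μg/ml LPS plus 10 ng/ml IFNγ without media change. After a further 48 hours, NO release was measured by Griess Reaction.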

Microglial cells = test: Dose response inhibition of NO release from microglia, 0.5-500 μM (Example 9); conditions: for inhibition at 0.5 µM / inhibition at 1 µM / inhibition at 100 µM / inhibition at 250 µM / inhibition at 500 µM / μM NO release / μM NO release (No LPS average subtracted) / % inhibition: 48 hours; for μM NO release / μM NO release (No LPS average subtracted): 3 replicates
Experimental: This experiment was designed to determine the dose response inhibition of NO release from microglia by bis- and tris-dihydroxyaryl compounds when stimulated with LPS/IFNγ. Earlier experiments have demonostrated that some bis- and tris-dihydroxyaryl compounds are good inhibitors of NO release from microglia. This experiment is designed to determine a dose response for various effective bis- and tris-dihydroxyaryl compounds. Microglial cells were plated into 96 well plates at 1×10^5 cells/ml. At 48 hours, media was exchanged for media containing 10 ng/ml IFNγ and 10 μg/ml LPS and the following compounds 3, 4, 21, 26 and the positive control L-NAME. The doses tested were: 0.5 μM, 1.0 μM, 5.0 μM, 10 μM, 25 μM, 50 μM, 100 μM, 250 μM, and 500 μM. Nitric oxide release was measured after 48 hours using the Griess reaction.

With Oc1ccc(CNCc2ccc(O)c(O)c2)cc1O [Compound 73, bis(3,4-dihydroxybenzyl)amine] the inhibition at 50 µM (microglia) was 2%, the “μM NO release” value ([1]; 50 uM pretreatment 24 hours, then LPS/IFNγ 48 hours, single replicates) was 0.000 µM and the inhibition at 50 µM ([1]; 50 uM pretreatment 24 hours, then LPS/IFNγ 48 hours, read-out: Avg % Inhibition) was 100%. For the same molecule, the inhibition at 50 µM ([1]; 50 uM pretreatment 24 hours, then LPS/IFNγ 48 hours, single replicates, read-out: % inhibition) was 100%, the inhibition at 50 µM ([1]; 50 μM pretreatment, read-out: inhibition of NO release following pretreatment) was > 75% and the inhibition at 0.5 µM (Microglial cells; Microglia, 48 h, dose 0.5 μM, NO release, LPS/IFNγ, read-out: Avg % Inhibition) was 12.7%. For the same molecule, the inhibition at 0.5 µM (Microglial cells; Microglia, 48 h, dose 0.5 μM, individual replicates, NO release, LPS/IFNγ, read-out: % inhibition) was 15.5%, the inhibition at 1 µM (Microglial cells; Microglia, 48 h, dose 1 μM, NO release, LPS/IFNγ, read-out: Avg % Inhibition) was 16.5% and the inhibition at 1 µM (Microglial cells; Microglia, 48 h, dose 1 μM, individual replicates, NO release, LPS/IFNγ, read-out: % inhibition) was 17.7%. The inhibition at 5 µM (Microglial cells; Microglia, 48 h, dose 5 μM, NO release, LPS/IFNγ) was 1.5%, the inhibition at 10 µM (Microglial cells; Microglia, 48 h, dose 10 μM, NO release, LPS/IFNγ) was 1.75% and the inhibition at 25 µM (Microglial cells; Microglia, 48 h, dose 25 μM, NO release, LPS/IFNγ) was 0.75%. The inhibition at 50 µM (Microglial cells; Microglia, 48 h, dose 50 μM, NO release, LPS/IFNγ) was 0.25%, the inhibition at 100 µM (Microglial cells; Microglia, 48 h, dose 100 μM, NO release, LPS/IFNγ, read-out: Avg % Inhibition) was 33% and the inhibition at 100 µM (Microglial cells; Microglia, 48 h, dose 100 μM, individual replicates, NO release, LPS/IFNγ, read-out: % inhibition) was 31.2%. For the same molecule, the inhibition at 250 µM (Microglial cells; Microglia, 48 h, dose 250 μM, NO release, LPS/IFNγ, read-out: Avg % Inhibition) was 45.3%, the inhibition at 250 µM (Microglial cells; Microglia, 48 h, dose 250 μM, individual replicates, NO release, LPS/IFNγ, read-out: % inhibition) was 46.7% and the inhibition at 500 µM (Microglial cells; Microglia, 48 h, dose 500 μM, NO release, LPS/IFNγ, read-out: Avg % Inhibition) was 72.3%. The inhibition at 500 µM (Microglial cells; Microglia, 48 h, dose 500 μM, individual replicates, NO release, LPS/IFNγ, read-out: % inhibition) was 72.6%, the inhibition at 500 µM (Microglial cells; Microglia, 48 h, highest concentration tested (500 μM), read-out: inhibited NO release by) was 72% and the “μM NO release” value (Microglial cells; dose 0.5 μM, LPS/IFNγ) was 17.361 µM and 18.194 µM and 18.056 µM. For the same molecule, the “μM NO release (No LPS average subtracted)” value (Microglial cells; dose 0.5 μM, LPS/IFNγ) was 15.66 µM and 16.49 µM and 16.36 µM, the “% inhibition” value (Microglial cells; dose 0.5 μM, individual replicates, NO release, LPS/IFNγ) was 10.99% and 11.74% and the “μM NO release” value (Microglial cells; dose 1 μM, LPS/IFNγ) was 16.944 µM and 16.806 µM and 17.778 µM. For the same molecule, the “μM NO release (No LPS average subtracted)” value (Microglial cells; dose 1 μM, LPS/IFNγ) was 15.25 µM and 15.11 µM and 16.08 µM, the “% inhibition” value (Microglial cells; dose 1 μM, individual replicates, NO release, LPS/IFNγ) was 18.49% and 13.25% and the “μM NO release” value (Microglial cells; dose 5 μM, LPS/IFNγ) was 20.000 µM and 19.583 µM and 20.278 µM. The “μM NO release (No LPS average subtracted)” value (Microglial cells; dose 5 μM, LPS/IFNγ) was 18.30 µM and 17.88 µM and 18.58 µM, the “% inhibition” value (Microglial cells; dose 5 μM, individual replicates, NO release, LPS/IFNγ) was 1.25% and 3.50% and −0.25% and the “μM NO release” value (Microglial cells; dose 10 μM, LPS/IFNγ) was 18.889 μM and 20.417 μM (2×). For the same molecule, the “μM NO release (No LPS average subtracted)” value (Microglial cells; dose 10 μM, LPS/IFNγ) was 17.19 μM and 18.72 μM (2×), the “% inhibition” value (Microglial cells; dose 10 μM, individual replicates, NO release, LPS/IFNγ) was 7.24% and −1.00% (2×) and the “μM NO release” value (Microglial cells; dose 25 μM, LPS/IFNγ) was 19.167 µM and 20.139 µM and 20.972 µM. For the same molecule, the “μM NO release (No LPS average subtracted)” value (Microglial cells; dose 25 μM, LPS/IFNγ) was 17.47 µM and 18.44 µM and 19.27 µM, the “% inhibition” value (Microglial cells; dose 25 μM, individual replicates, NO release, LPS/IFNγ) was 5.75% and 0.50% and −4.00% and the “μM NO release” value (Microglial cells; dose 50 μM, LPS/IFNγ) was 19.444 µM and 19.861 µM and 21.250 µM. For the same molecule, the “μM NO release (No LPS average subtracted)” value (Microglial cells; dose 50 μM, LPS/IFNγ) was 17.74 µM and 18.16 µM and 19.55 µM, the “% inhibition” value (Microglial cells; dose 50 μM, individual replicates, NO release, LPS/IFNγ) was 4.25% and 2.00% and −5.50% and the “μM NO release” value (Microglial cells; dose 100 μM, LPS/IFNγ) was 14.444 µM and 13.056 µM and 14.861 µM. The “μM NO release (No LPS average subtracted)” value (Microglial cells; dose 100 μM, LPS/IFNγ) was 12.74 µM and 11.36 µM and 13.16 µM, the “% inhibition” value (Microglial cells; dose 100 μM, individual replicates, NO release, LPS/IFNγ) was 38.72% and 28.98% and the “μM NO release” value (Microglial cells; dose 250 μM, LPS/IFNγ) was 11.569 µM and 10.904 µM and 13.056 µM. For the same molecule, the “μM NO release (No LPS average subtracted)” value (Microglial cells; dose 250 μM, LPS/IFNγ) was 9.87 µM and 9.20 µM and 11.36 µM, the “% inhibition” value (Microglial cells; dose 250 μM, individual replicates, NO release, LPS/IFNγ) was 50.33% and 38.72% and the “μM NO release” value (Microglial cells; dose 500 μM, LPS/IFNγ) was 6.782 µM and 6.516 µM and 7.181 µM. For the same molecule, the “μM NO release (No LPS average subtracted)” value (Microglial cells; dose 500 μM, LPS/IFNγ) was 5.08 µM and 4.82 µM and 5.48 µM and the “% inhibition” value (Microglial cells; dose 500 μM, individual replicates, NO release, LPS/IFNγ) was 74.01% and 70.42%.
